Results taken from publication PMC10247784, “Physiological activation of human and mouse bitter taste receptors by bile acids” (Communications Biology, 2023).
Values joined by “and” are separate entries in the source; they are usually repeats but may differ in a detail not shown here. Identical values can stand only once.

Target: T1, human TAS2R4 (Homo sapiens, UniProt Q9NYW5)
T1 construct: expressed in transfected cells; host or cells: HEK293T-Gα16gust44
T1 sequence (Q9NYW5 1-299): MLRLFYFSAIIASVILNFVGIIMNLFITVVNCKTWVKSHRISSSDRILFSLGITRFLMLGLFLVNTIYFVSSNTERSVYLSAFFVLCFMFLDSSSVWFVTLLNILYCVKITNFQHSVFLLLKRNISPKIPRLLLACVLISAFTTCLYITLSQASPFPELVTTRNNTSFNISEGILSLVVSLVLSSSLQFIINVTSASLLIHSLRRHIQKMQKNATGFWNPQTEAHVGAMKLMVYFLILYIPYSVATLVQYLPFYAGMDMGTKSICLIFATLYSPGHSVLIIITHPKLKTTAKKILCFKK
Test: Calcium imaging assay (FLIPR), HEK293T-Gα16gust44 cells transfected with human TAS2R4
Format: cell-based
Outline: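 Fluo-4 calcium responses; ΔF/F corrected for mock transfection and buffer control; triplicate independent dose-response runs; p < 0.01 threshold.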

SMILES: C[C@H](CCC(=O)O)[C@H]1CC[C@H]2[C@@H]3[C@H](O)C[C@@H]4C[C@H](O)CC[C@]4(C)[C@H]3C[C@H](O)[C@]12C [Cholic Acid, cholic acid]
- Efficacy = maximal amplitude (ΔF/F) (TAS2R4, bile acids, mean): 0.1231
- Efficacy (maximal amplitude ΔF/F), individual data points (TAS2R4, bile acids, single replicates, listed as CA): 0.1201 and 0.127 and 0.1223
- RLU, fluorescence trace (Time (s) 0): 0 RLU
- RLU, fluorescence trace (Time (s) 2): 19.1006 RLU
- RLU, fluorescence trace (Time (s) 4): 0.3953 RLU
- RLU, fluorescence trace (Time (s) 6): 2.918 RLU
- RLU, fluorescence trace (Time (s) 8): 21.2897 RLU
- RLU, fluorescence trace (Time (s) 12): 0.674 RLU
- RLU, fluorescence trace (Time (s) 14): -1.277 RLU
- RLU, fluorescence trace (Time (s) 16): 19.6047 RLU
- RLU, fluorescence trace (Time (s) 18): 0.9534 RLU
- RLU, fluorescence trace (Time (s) 18.766 (TCA, TLCA: 18.782)): -8.812 RLU
- RLU, fluorescence trace (Time (s) 20.781 (TCA, TLCA: 20.782)): -52.2052 RLU
- RLU, fluorescence trace (Time (s) 22.781 (TCA, TLCA: 22.782)): 12.9621 RLU
- RLU, fluorescence trace (Time (s) 24.781 (TCA, TLCA: 24.782)): 16.2873 RLU
- RLU, fluorescence trace (Time (s) 26.781 (TCA, TLCA: 26.782)): 53.8077 RLU
- RLU, fluorescence trace (Time (s) 28.781 (TCA, TLCA: 28.782)): 116.69 RLU
- RLU, fluorescence trace (Time (s) 30.781 (TCA, TLCA: 30.782)): 202.767 RLU
- RLU, fluorescence trace (Time (s) 32.781 (TCA, TLCA: 32.782)): 286.976 RLU
- RLU, fluorescence trace (Time (s) 34.781 (TCA, TLCA: 34.782)): 331.157 RLU
- RLU, fluorescence trace (Time (s) 36.781 (TCA, TLCA: 36.782)): 398.002 RLU
- RLU, fluorescence trace (Time (s) 38.781 (TCA, TLCA: 38.782)): 447.116 RLU
- RLU, fluorescence trace (Time (s) 40.781 (TCA, TLCA: 40.782)): 484.385 RLU
- RLU, fluorescence trace (Time (s) 42.781 (TCA, TLCA: 42.782)): 513.813 RLU
- RLU, fluorescence trace (Time (s) 44.781 (TCA, TLCA: 44.782)): 571.4 RLU
- RLU, fluorescence trace (Time (s) 46.781 (TCA, TLCA: 46.782)): 576.681 RLU
- RLU, fluorescence trace (Time (s) 48.781 (TCA, TLCA: 48.782)): 621.92 RLU
- RLU, fluorescence trace (Time (s) 50.781 (TCA, TLCA: 50.782)): 628.153 RLU
- RLU, fluorescence trace (Time (s) 52.781 (TCA, TLCA: 52.782)): 608.216 RLU
- RLU, fluorescence trace (Time (s) 54.781 (TCA, TLCA: 54.782)): 673.422 RLU
- RLU, fluorescence trace (Time (s) 56.781 (TCA, TLCA: 56.782)): 649.648 RLU
- RLU, fluorescence trace (Time (s) 58.781 (TCA, TLCA: 58.782)): 665.81 RLU
- RLU, fluorescence trace (Time (s) 60.781 (TCA, TLCA: 60.782)): 679.484 RLU
- RLU, fluorescence trace (Time (s) 62.781 (TCA, TLCA: 62.782)): 679.42 RLU
- RLU, fluorescence trace (Time (s) 64.781 (TCA, TLCA: 64.782)): 662.359 RLU
- RLU, fluorescence trace (Time (s) 66.781 (TCA, TLCA: 66.782)): 681.18 RLU
- RLU, fluorescence trace (Time (s) 68.781 (TCA, TLCA: 68.782)): 661.786 RLU
- RLU, fluorescence trace (Time (s) 70.781 (TCA, TLCA: 70.782)): 663.821 RLU
- RLU, fluorescence trace (Time (s) 72.781 (TCA, TLCA: 72.782)): 677.656 RLU
- RLU, fluorescence trace (Time (s) 74.781 (TCA, TLCA: 74.782)): 687.298 RLU
- RLU, fluorescence trace (Time (s) 76.781 (TCA, TLCA: 76.782)): 685.082 RLU
- RLU, fluorescence trace (Time (s) 78.781 (TCA, TLCA: 78.782)): 661.065 RLU
- RLU, fluorescence trace (Time (s) 80.781 (TCA, TLCA: 80.782)): 659.476 RLU
- RLU, fluorescence trace (Time (s) 82.781 (TCA, TLCA: 82.782)): 652.14 RLU
- RLU, fluorescence trace (Time (s) 84.781 (TCA, TLCA: 84.782)): 621.974 RLU
- RLU, fluorescence trace (Time (s) 86.781 (TCA, TLCA: 86.782)): 644.971 RLU
- RLU, fluorescence trace (Time (s) 88.781 (TCA, TLCA: 88.782)): 652.467 RLU
- RLU, fluorescence trace (Time (s) 90.781 (TCA, TLCA: 90.782)): 634.908 RLU
- RLU, fluorescence trace (Time (s) 92.781 (TCA, TLCA: 92.782)): 616.215 RLU
- RLU, fluorescence trace (Time (s) 94.781 (TCA, TLCA: 94.782)): 623.143 RLU
- RLU, fluorescence trace (Time (s) 96.781 (TCA, TLCA: 96.782)): 577.048 RLU
- RLU, fluorescence trace (Time (s) 98.781 (TCA, TLCA: 98.782)): 590.83 RLU
- RLU, fluorescence trace (Time (s) 100.781 (TCA, TLCA: 100.782)): 594.46 RLU
- RLU, fluorescence trace (Time (s) 102.781 (TCA, TLCA: 102.782)): 570.853 RLU
- RLU, fluorescence trace (Time (s) 104.781 (TCA, TLCA: 104.782)): 535.832 RLU
- RLU, fluorescence trace (Time (s) 106.781 (TCA, TLCA: 106.782)): 576.036 RLU
- RLU, fluorescence trace (Time (s) 108.781 (TCA, TLCA: 108.782)): 552.984 RLU
- RLU, fluorescence trace (Time (s) 110.781 (TCA, TLCA: 110.782)): 539.61 RLU
- RLU, fluorescence trace (Time (s) 112.781 (TCA, TLCA: 112.782)): 529.912 RLU
- RLU, fluorescence trace (Time (s) 114.781 (TCA, TLCA: 114.782)): 525.649 RLU
- RLU, fluorescence trace (Time (s) 116.781 (TCA, TLCA: 116.782)): 514.781 RLU
- RLU, fluorescence trace (Time (s) 118.781 (TCA, TLCA: 118.782)): 515.049 RLU
- RLU, fluorescence trace (Time (s) 120.781 (TCA, TLCA: 120.782)): 488.175 RLU
- RLU, fluorescence trace (Time (s) 122.781 (TCA, TLCA: 122.782)): 489.541 RLU
- RLU, fluorescence trace (Time (s) 124.781 (TCA, TLCA: 124.782)): 470.085 RLU
- RLU, fluorescence trace (Time (s) 126.781 (TCA, TLCA: 126.782)): 464.513 RLU
- RLU, fluorescence trace (Time (s) 128.781 (TCA, TLCA: 128.782)): 464.071 RLU
- RLU, fluorescence trace (Time (s) 130.781 (TCA, TLCA: 130.782)): 466.285 RLU
- RLU, fluorescence trace (Time (s) 132.781 (TCA, TLCA: 132.782)): 460.578 RLU
- RLU, fluorescence trace (Time (s) 134.781 (TCA, TLCA: 134.782)): 427.673 RLU
- RLU, fluorescence trace (Time (s) 136.781 (TCA, TLCA: 136.782)): 445.361 RLU
- RLU, fluorescence trace (Time (s) 137.547): 436.003 RLU
- RLU, fluorescence trace (Time (s) 143.547): 408.618 RLU
- RLU, fluorescence trace (Time (s) 149.547): 386.336 RLU
- RLU, fluorescence trace (Time (s) 155.547): 351.767 RLU
- RLU, fluorescence trace (Time (s) 161.547): 346.602 RLU
- RLU, fluorescence trace (Time (s) 167.547): 335.172 RLU
- RLU, fluorescence trace (Time (s) 173.547): 264.873 RLU
- RLU, fluorescence trace (Time (s) 179.547): 265.3 RLU
- RLU, fluorescence trace (Time (s) 185.547): 242.782 RLU
- RLU, fluorescence trace (Time (s) 191.547): 246.932 RLU
- RLU, fluorescence trace (Time (s) 197.547): 258.506 RLU
- RLU, fluorescence trace (Time (s) 203.547): 232.756 RLU
- RLU, fluorescence trace (Time (s) 209.547): 219.78 RLU
- RLU, fluorescence trace (Time (s) 215.547): 251.011 RLU
- RLU, fluorescence trace (Time (s) 221.547): 260.591 RLU
- RLU, fluorescence trace (Time (s) 227.547): 271.039 RLU
- RLU, fluorescence trace (Time (s) 233.547): 291.66 RLU
- RLU, fluorescence trace (Time (s) 239.547): 269.732 RLU
- RLU, fluorescence trace (Time (s) 245.547): 266.514 RLU
- RLU, fluorescence trace (Time (s) 293.547): 239.384 RLU
- RLU, fluorescence trace (Time (s) 299.547): 250.874 RLU
- RLU, fluorescence trace (Time (s) 305.547): 250.223 RLU
- RLU, fluorescence trace (Time (s) 311.547): 248.529 RLU
- RLU, fluorescence trace (Time (s) 317.547): 268.105 RLU
- RLU, fluorescence trace (Time (s) 323.547): 278.662 RLU
- RLU, fluorescence trace (Time (s) 329.547): 259.586 RLU
- RLU, fluorescence trace (Time (s) 335.547): 285.984 RLU
- RLU, fluorescence trace (Time (s) 341.547): 283.853 RLU
- RLU, fluorescence trace (Time (s) 347.547): 275.523 RLU
- RLU, fluorescence trace (Time (s) 353.547): 309.056 RLU
- RLU, fluorescence trace (Time (s) 359.547): 277.364 RLU
- Activation threshold concentration TAS2R4 (lowest concentration with significantly increased fluorescence vs empty vector (p < 0.01)): 30 µM
